Measurements published in PubChem BioAssay AID1963867 (Molecular Pharmacology Branch, DTP, NCI, 2024).
pIC50: −log10 of the molar value.

System: KRAS-mutant PDC tumor spheroid with HUVEC/MSC, viability
Assay: Anticancer human tumor 327498-153-R-J2-PDC patient-derived uterine carcinosarcoma cell line growth inhibition [KRAS2]
Conditions: for pIC50: curve of first compound; for viability, T/C: stronger effect = lower value; active means viability on the fitted dose curve at most 10% of control; inactive means the rest
How it was run: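 KRAS-mutant tumor cells were grown as spheroids with HUVEC endothelial cells and human MSCs as stroma. Targeted agents were tested alone and with KRAS pathway inhibitors. Doses started at or near clinical Cmax, or 10 microM, descending half-log.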

[1] = second compound 0.1 µM, first compound 0.0316 µM
[2] = second compound 0.1 µM, first compound 0.1 µM
[3] = second compound 0.1 µM, first compound 0.316 µM
[4] = second compound 0.1 µM, first compound 1 µM
[5] = second compound 0.1 µM, first compound 3.16 µM
[6] = second compound 0.1 µM, first compound 10 µM
[7] = second compound 0.316 µM, first compound 0.0316 µM
[8] = second compound 0.316 µM, first compound 0.1 µM
[9] = second compound 0.316 µM, first compound 0.316 µM
[10] = second compound 0.316 µM, first compound 1 µM
[11] = second compound 0.316 µM, first compound 3.16 µM
[12] = second compound 0.316 µM, first compound 10 µM
[13] = second compound 1 µM, first compound 0.0316 µM
[14] = second compound 1 µM, first compound 0.1 µM
[15] = second compound 1 µM, first compound 0.316 µM
[16] = second compound 1 µM, first compound 1 µM
[17] = second compound 1 µM, first compound 3.16 µM
[18] = second compound 1 µM, first compound 10 µM
[19] = second compound 3.16 µM, first compound 0.0316 µM
[20] = second compound 3.16 µM, first compound 0.1 µM
[21] = second compound 3.16 µM, first compound 0.316 µM
[22] = second compound 3.16 µM, first compound 1 µM
[23] = second compound 3.16 µM, first compound 3.16 µM
[24] = second compound 3.16 µM, first compound 10 µM
[25] = second compound 10 µM, first compound 0.0316 µM
[26] = second compound 10 µM, first compound 0.1 µM
[27] = second compound 10 µM, first compound 0.316 µM
[28] = second compound 10 µM, first compound 1 µM
[29] = second compound 10 µM, first compound 3.16 µM
[30] = second compound 10 µM, first compound 10 µM
[31] = second compound 0.1 µM, first compound 0.01 µM
[32] = second compound 0.316 µM, first compound 0.01 µM
[33] = second compound 1 µM, first compound 0.01 µM
[34] = second compound 3.16 µM, first compound 0.01 µM
[35] = second compound 10 µM, first compound 0.01 µM
[36] = second compound 0.1 µM, first compound 0.00316 µM
[37] = second compound 0.316 µM, first compound 0.00316 µM
[38] = second compound 1 µM, first compound 0.00316 µM
[39] = second compound 3.16 µM, first compound 0.00316 µM
[40] = second compound 10 µM, first compound 0.00316 µM
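Further: spheroids exposed to agents for seven days before reading.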
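Wherever viability, T/C is given: 100% = DMSO vehicle wells so lower means fewer viable cells.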

CC(C)NCC(C(=O)N1CCN(c2ncnc3c2C(C)CC3O)CC1)c1ccc(Cl)cc1 (stereo not given) + COc1cc2nc(C)nc(NC(C)c3cc(N)cc(C(F)(F)F)c3)c2cc1OC1CCOC1
7.04: pIC50 (second compound 1 µM)
6.71: pIC50 (second compound 0.1 µM)
active: viability, T/C [6] 9.87% | viability, T/C [12] 9.57% | viability, T/C [17] 7.32% | viability, T/C [18] 3.46% | viability, T/C [23] 8.44% | viability, T/C [24] 8.27% | viability, T/C [28] 5.51% | viability, T/C [29] 0.16% | viability, T/C [30] 0.34%
6.99: pIC50 (second compound 0.316 µM)
inactive: viability, T/C [1] 70.8% | viability, T/C [2] 57.7% | viability, T/C [3] 44% | viability, T/C [4] 26.3% | viability, T/C [5] 9.54% | viability, T/C [7] 62.5% | viability, T/C [8] 49.5% | viability, T/C [9] 34.4% | viability, T/C [10] 21.7% | viability, T/C [11] 8.09% | viability, T/C [13] 60% | viability, T/C [14] 51% | viability, T/C [15] 28.8% | viability, T/C [16] 17.7% | viability, T/C [19] 54.4% | viability, T/C [20] 42.1% | viability, T/C [21] 43.6% | viability, T/C [22] 14.2% | viability, T/C [25] 37.8% | viability, T/C [26] 27.3% | viability, T/C [27] 16.6%
> 7.50: pIC50 (second compound 3.16 µM) | pIC50 (second compound 10 µM)

CC1(C)CCC(CN2CCN(c3ccc(C(=O)NS(=O)(=O)c4ccc(NCC5CCOCC5)c([N+](=O)[O-])c4)c(Oc4cnc5[nH]ccc5c4)c3)CC2)=C(c2ccc(Cl)cc2)C1 + COc1cc2nc(C)nc(NC(C)c3cc(N)cc(C(F)(F)F)c3)c2cc1OC1CCOC1
5.70: pIC50 (second compound 1 µM)
inactive: viability, T/C [1] 78.8% | viability, T/C [2] 80.5% | viability, T/C [3] 76.9% | viability, T/C [4] 77.3% | viability, T/C [5] 50.5% | viability, T/C [7] 74.3% | viability, T/C [8] 64.3% | viability, T/C [9] 75.4% | viability, T/C [10] 71.1% | viability, T/C [11] 41.5% | viability, T/C [13] 74.1% | viability, T/C [14] 72% | viability, T/C [15] 65.9% | viability, T/C [16] 67.8% | viability, T/C [17] 38.8% | viability, T/C [19] 65.2% | viability, T/C [20] 65.3% | viability, T/C [21] 66.7% | viability, T/C [22] 61.5% | viability, T/C [23] 28.4% | viability, T/C [25] 53% | viability, T/C [26] 54.6% | viability, T/C [27] 42.1% | viability, T/C [28] 39.9% | viability, T/C [29] 11.5%
6.75: pIC50 (second compound 10 µM)
5.64: pIC50 (second compound 0.316 µM)
5.83: pIC50 (second compound 3.16 µM)
5.49: pIC50 (second compound 0.1 µM)
active: viability, T/C [6] 4.9% | viability, T/C [12] 1.82% | viability, T/C [18] 0.73% | viability, T/C [24] 3.34% | viability, T/C [30] 0.44%

CC1COCCN1c1cc(-c2ccnn2C)c2ccnc(-c3ccn[nH]3)c2n1 (stereo not given) + COc1cc2nc(C)nc(NC(C)c3cc(N)cc(C(F)(F)F)c3)c2cc1OC1CCOC1
inactive: viability, T/C [31] 63.9% | viability, T/C [32] 81.8% | viability, T/C [7] 31.4% | viability, T/C [33] 62.1% | viability, T/C [13] 30.1% | viability, T/C [14] 10.6% | viability, T/C [34] 57.9% | viability, T/C [19] 25.2% | viability, T/C [35] 46.3% | viability, T/C [25] 15.9%
active: viability, T/C [1] 3.7% | viability, T/C [2] 2.44% | viability, T/C [3] 3.52% | viability, T/C [4] 4.74% | viability, T/C [5] 4.39% | viability, T/C [8] 9.52% | viability, T/C [9] 6.32% | viability, T/C [10] 5.51% | viability, T/C [11] 5.8% | viability, T/C [15] 5.67% | viability, T/C [16] 7.04% | viability, T/C [17] 4.67% | viability, T/C [20] 6.64% | viability, T/C [21] 3.75% | viability, T/C [22] 3.28% | viability, T/C [23] 3.79% | viability, T/C [26] 1.79% | viability, T/C [27] 2.06% | viability, T/C [28] 1.48% | viability, T/C [29] 0.91%
> 8.00: pIC50 (second compound 10 µM)
7.88: pIC50 (second compound 3.16 µM)
7.81: pIC50 (second compound 1 µM)
7.68: pIC50 (second compound 0.316 µM)
7.89: pIC50 (second compound 0.1 µM)

CCN1CCN(Cc2ccc(Nc3ncc(F)c(-c4cc(F)c5nc(C)n(C(C)C)c5c4)n3)nc2)CC1 + COc1cc2nc(C)nc(NC(C)c3cc(N)cc(C(F)(F)F)c3)c2cc1OC1CCOC1
8.35: pIC50 (second compound 3.16 µM)
> 8.50: pIC50 (second compound 1 µM) | pIC50 (second compound 10 µM)
7.97: pIC50 (second compound 0.1 µM)
8.16: pIC50 (second compound 0.316 µM)
active: viability, T/C [28] 0.34%
inactive: viability, T/C [36] 65.4% | viability, T/C [31] 52.8% | viability, T/C [1] 42.6% | viability, T/C [2] 40% | viability, T/C [3] 40% | viability, T/C [4] 49.2% | viability, T/C [37] 61% | viability, T/C [32] 48% | viability, T/C [7] 33.2% | viability, T/C [8] 35.9% | viability, T/C [9] 36.6% | viability, T/C [10] 41.2% | viability, T/C [38] 51.8% | viability, T/C [33] 37.8% | viability, T/C [13] 33% | viability, T/C [14] 30% | viability, T/C [15] 39.5% | viability, T/C [16] 42.8% | viability, T/C [39] 56.4% | viability, T/C [34] 34.5% | viability, T/C [19] 31% | viability, T/C [20] 29.9% | viability, T/C [21] 34.6% | viability, T/C [22] 31.3% | viability, T/C [40] 45.4% | viability, T/C [35] 28.9% | viability, T/C [25] 29.2% | viability, T/C [26] 26.9% | viability, T/C [27] 20.3%

CCNC(=O)CC1N=C(c2ccc(Cl)cc2)c2cc(OC)ccc2-n2c(C)nnc21 (stereo not given) + COc1cc2nc(C)nc(NC(C)c3cc(N)cc(C(F)(F)F)c3)c2cc1OC1CCOC1
6.38: pIC50 (second compound 0.316 µM)
6.34: pIC50 (second compound 0.1 µM)
6.72: pIC50 (second compound 3.16 µM)
inactive: viability, T/C [1] 84.7% | viability, T/C [2] 81.5% | viability, T/C [3] 59.2% | viability, T/C [4] 30.5% | viability, T/C [5] 21.1% | viability, T/C [6] 20.4% | viability, T/C [7] 74% | viability, T/C [8] 69.1% | viability, T/C [9] 57.6% | viability, T/C [10] 27.5% | viability, T/C [11] 23.2% | viability, T/C [12] 24.2% | viability, T/C [13] 75.6% | viability, T/C [14] 75.2% | viability, T/C [15] 52.7% | viability, T/C [16] 22.6% | viability, T/C [17] 20.4% | viability, T/C [18] 18.2% | viability, T/C [19] 75% | viability, T/C [20] 56% | viability, T/C [21] 47.2% | viability, T/C [22] 26.5% | viability, T/C [23] 20.6% | viability, T/C [24] 21.7% | viability, T/C [25] 63.7% | viability, T/C [26] 52.7% | viability, T/C [27] 46.4% | viability, T/C [28] 23.6% | viability, T/C [29] 19.5% | viability, T/C [30] 13.9%
6.76: pIC50 (second compound 10 µM)
6.45: pIC50 (second compound 1 µM)

Cn1ncnc1[C@H]1c2n[nH]c(=O)c3cc(F)cc(c23)N[C@@H]1c1ccc(F)cc1 + COc1cc2nc(C)nc(NC(C)c3cc(N)cc(C(F)(F)F)c3)c2cc1OC1CCOC1
7.90: pIC50 (second compound 0.1 µM)
8.85: pIC50 (second compound 10 µM)
8.13: pIC50 (second compound 3.16 µM)
8.37: pIC50 (second compound 1 µM)
inactive: viability, T/C (second compound 0.1 µM, first compound 0.000316 µM) 79.3% | viability, T/C (second compound 0.1 µM, first compound 0.001 µM) 82.3% | viability, T/C [36] 68.9% | viability, T/C [31] 54.5% | viability, T/C [1] 33.3% | viability, T/C [2] 20.1% | viability, T/C (second compound 0.316 µM, first compound 0.000316 µM) 82.1% | viability, T/C (second compound 0.316 µM, first compound 0.001 µM) 63.5% | viability, T/C [37] 68.6% | viability, T/C [32] 48.1% | viability, T/C [7] 32.2% | viability, T/C [8] 20.5% | viability, T/C (second compound 1 µM, first compound 0.000316 µM) 76.6% | viability, T/C (second compound 1 µM, first compound 0.001 µM) 69.7% | viability, T/C [38] 50% | viability, T/C [33] 42.1% | viability, T/C [13] 28.7% | viability, T/C [14] 20.1% | viability, T/C (second compound 3.16 µM, first compound 0.000316 µM) 62.9% | viability, T/C (second compound 3.16 µM, first compound 0.001 µM) 68.8% | viability, T/C [39] 58.1% | viability, T/C [34] 47.3% | viability, T/C [19] 26.5% | viability, T/C [20] 20.4% | viability, T/C (second compound 10 µM, first compound 0.000316 µM) 50% | viability, T/C (second compound 10 µM, first compound 0.001 µM) 51.6% | viability, T/C [40] 48.5% | viability, T/C [35] 42% | viability, T/C [25] 27.8% | viability, T/C [26] 18.5%
8.04: pIC50 (second compound 0.316 µM)
